Series [1] has as its target T1, cloned hTRPM8 channel (encoded by the human TRPM8 gene, expressed in CHO cells) (Homo sapiens, UniProt Q7Z2W7).
T1 construct: host or cells: CHO cells, stably transfected
The series can be described thus: TRPM8 agonist FLIPR Fluo-8 calcium assay. It counts as cell-based. To be noted: for TRPM8 Relative Potency: DAPA-1-7 = 1. As to the method:
The in vitro effects of test compounds were evaluated on cloned hTRPM8 channel (encoded by the human TRPM8 gene, expressed in CHO cells) using a Fluo-8 calcium kit and a Fluorescence Imaging Plate Reader (FLIPR^TETRA™) instrument.
Test compounds and positive control solutions were prepared by diluting stock solutions in a HEPES-buffered physiological saline (HBPS) solution. The test compound and control formulations were loaded in polypropylene or glass-lined 384-well plates, and placed into the FLIPR instrument (Molecular Devices Corporation, Union City, Calif., USA). The test compounds were evaluated at 4 or 8 concentrations with n=4 replicates per determination. […] The test cells were Chinese Hamster Ovary (CHO) cells stably transfected with human TRPM8 cDNAs.
For the FLIPR^TETRA™ assay, cells were plated in 384-well black wall, flat clear-bottom microtiter plates (Type: BD Biocoat Poly-D-Lysine Multiwell Cell Culture Plate) at approximately 30,000 cells per well. Cells were incubated at 37° C. overnight to reach a near confluent monolayer appropriate for use in a fluorescence assay. The test procedure was to remove the growth media and to add 40 μL of HBPS containing Fluo-8 for 30 min at 37° C. 10 μL of test compound, vehicle, or control solutions in HBPS were added to each well and read for 4 min.
Concentration-response data were analyzed via the FLIPR Control software that is supplied with the FLIPR System (MDS-AT) and fitted to a Hill equation of the following form: […]
where: “Base” is the response at low concentrations of test compound; “Max” is the maximum response at high concentrations; “xhalf” is the EC50, the concentration of test compound producing half-maximal activation; and “rate” is the Hill coefficient. Nonlinear least squares fits were made assuming a simple one-to-one binding model.

In series [2] the test system is oral cavity and pharyngeal surfaces. The series can be described thus: Sensory activity of ODT-A on volunteers. It counts as in vivo, human. To be noted: 6 to 8 trials per compound. The method, then:
ODT-A was prepared by dissolving the DAPA compound in absolute ethanol, adding a 80% mannitol-20% maltitol mixture of equal weight and then adding an equal volume of distilled water. The mixture was the stirred with a glass rod, and dispensed onto a piece of wax or parchment paper with a disposable plastic pipette. The viscous liquid drop formed was then dried under a heat source for at least 4 hr. The nominal dose of the API in ODT-A ranged from 1 to 3 mg/tablet. The dried tablets weighed on average 150 mg each and when on the dorsal surface of the tongue, rapidly dissolved completely in saliva and coated the oropharyngeal surface. These tablets were suitable for initial pilot studies, but were not uniform in size, were friable, especially in conditions of high ambient humidity, and were not readily amenable to further analytical evaluation.
Sensory Qualities of ODT on the Oral Cavity and Pharyngeal Surfaces The DAPA ODT of Study 2 were evaluated for sensory properties on volunteers. The ODT-A results [see table] are from 6 to 8 trials per compound in several experienced individuals familiar with sensory properties of “cooling agents”. The results of ODT-A will be discussed together with ODT-B and ODT-C.

Series [3] has as its system oropharynx. Kind of series: Chili-pepper sauce irritation test. It counts as in vivo, human. To be noted: ODT, sauce applied 30 min later; 6 to 8 trials per compound. On the set-up: key: If there was no suppression of the irritant/tickling sensations of the sauce, the value was “0”; if there was some suppression, the value was “+”; if there was complete suppression, then the value was “++.”. An excerpt: The “pain” component of inflammation includes irritation, itch, and discomfort and suppression of these endpoints is termed “anti-nociceptive”. To determine if a compound has anti-nociceptive activity, the Inventor has devised a modified capsaicin challenge method to evoke discomfort in the oropharyngx: the chili-pepper sauce irritation test. Chili-pepper sauce placed onto the posterior dorsal surface of the tongue evokes a tickling/irritant sensations in the oropharynx. The sensations associated with the chili pepper sauce are located in the back of the mouth and are clearly recognized and associated with irritation and a desire to clear the throat. In the chili-pepper sauce irritation test, the test compound is delivered using an ODT, as in Study 3, and 30 min later 0.2 to 0.25 mL of the sauce was applied onto the posterior dorsal surface of the tongue (with a syringe or a plastic stick). The chili pepper sauce used here is called Yank Sing® Chili Pepper Sauce (YS Gourmet Productions, Inc., PO Box 26189, San Francisco, Calif. 94126) and is a well-known condiment for use with dim sum (Chinese tea lunch). If there was no suppression of the irritant/tickling sensations of the sauce, the value was “0”; if there was some suppression, the value was “+”; and if there was complete suppression, then the value was “++.” For compounds that gave a ++ score, the irritative signals of the chili-pepper sauce are completely absent, yet the salty taste from the soy sauce of the condiment can still be readily tasted. A “++” result indicated suppression of the irritant effects of chili-pepper sauce. Numerical results are from 6 to 8 trials per compound.

Series [4] relates to throat. Kind of series: Cold water test after ODT-A (cold discomfort). Type of series: in vivo, human. Also noted: key: If the subject felt “normal coolness” in the throat, the value was “0”; if the water felt “excessively cold” on the throat, it was rated as “+”; if there was “aching cold/discomfort” on the throat, the ranking was “++”. To be noted: ODT-A on the tongue, ice water drunk 10 min later. The method, then:
After application of ODT-A there were sensations associated with heat abstraction of various intensity and duration. Of particular note was the sensation of “icy or painful” cold was felt with some compounds, but the effect was variable. To isolate this sensation more precisely and reduce variability, ODT-A was placed on the tongue and 10 min later the subject was instructed to drink a mouthful of water previously equilibrated with ice chips. If the subject felt “normal coolness” in the throat, the value was “0”; if the water felt “excessively cold” on the throat, it was rated as “+”; and if there was “aching cold/discomfort” on the throat, the ranking was “++”. The term “cold discomfort” was applied compounds that produced “++”, and this phenomenon could now be reliably defined and identified with the cold water test.

The text below walks through data of patent US20150111852A1, “1-Di(sec-butyl)-phosphinoyl-pentane (dapa-2-5) as a topical agent” (priority 2013, published 2015).

T1 sequence (Q7Z2W7 whole entry): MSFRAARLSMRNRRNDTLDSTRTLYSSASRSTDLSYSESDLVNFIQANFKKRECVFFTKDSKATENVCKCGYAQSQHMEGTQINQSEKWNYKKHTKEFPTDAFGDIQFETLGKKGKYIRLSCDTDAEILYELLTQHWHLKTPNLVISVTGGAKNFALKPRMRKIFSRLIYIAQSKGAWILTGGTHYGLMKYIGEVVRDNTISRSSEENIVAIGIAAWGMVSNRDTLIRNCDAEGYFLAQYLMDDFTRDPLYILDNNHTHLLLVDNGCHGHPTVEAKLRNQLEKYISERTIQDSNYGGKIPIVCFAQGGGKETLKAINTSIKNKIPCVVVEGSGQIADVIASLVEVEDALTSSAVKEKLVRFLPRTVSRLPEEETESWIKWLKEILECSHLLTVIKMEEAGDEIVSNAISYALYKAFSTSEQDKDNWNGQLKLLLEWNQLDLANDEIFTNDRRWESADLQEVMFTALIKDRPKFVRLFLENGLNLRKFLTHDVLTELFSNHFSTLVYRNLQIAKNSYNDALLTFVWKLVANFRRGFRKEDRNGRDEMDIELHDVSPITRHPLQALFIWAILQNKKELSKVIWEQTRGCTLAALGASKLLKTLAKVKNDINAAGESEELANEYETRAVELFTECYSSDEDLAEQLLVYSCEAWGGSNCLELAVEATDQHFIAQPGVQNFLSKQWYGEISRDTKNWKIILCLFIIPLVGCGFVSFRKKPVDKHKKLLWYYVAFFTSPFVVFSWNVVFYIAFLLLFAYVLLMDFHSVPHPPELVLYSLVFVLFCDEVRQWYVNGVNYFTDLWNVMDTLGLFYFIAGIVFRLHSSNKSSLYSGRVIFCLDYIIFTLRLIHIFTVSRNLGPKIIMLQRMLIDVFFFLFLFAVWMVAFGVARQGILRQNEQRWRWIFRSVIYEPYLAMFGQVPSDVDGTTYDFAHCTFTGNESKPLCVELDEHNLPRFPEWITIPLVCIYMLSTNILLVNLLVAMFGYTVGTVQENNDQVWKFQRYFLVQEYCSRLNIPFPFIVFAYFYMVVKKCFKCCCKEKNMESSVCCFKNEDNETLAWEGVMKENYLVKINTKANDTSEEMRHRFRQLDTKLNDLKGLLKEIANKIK

As for `CCCCCCP(=O)(C(C)C)C(C)C` [DAPA-1-6, 1-Di(isopropyl)-phosphinoyl-hexane], the “Relative Potency to L-menthol” value in series [1] was found to be 1.6. Moreover, in series [2], the “Duration” value was determined as 16 min, the “Onset” value stood at 0.6 min and the “Sensory Quality” value is “cool/cold”. Moreover, the Chili test entry in series [3] is listed as “++”. Besides, the “Cold Discomfort” value in series [4] is listed as “++”.

Consider `CCCCCCCP(=O)(C(C)C)C(C)C` [DAPA-1-7, 1-Di(isopropyl)-phosphinoyl-heptane], for which, in series [1], the “Relative Potency to L-menthol” value amounted to 5.4 and the “TRPM8 Relative Potency” value worked out at 1. In addition, in series [2], the “Duration” value was determined as 16 min, the “Onset” value stood at 0.6 min and the “Sensory Quality” value is “cool/cold”. In series [3], the Chili test entry is on record as “++”. In addition, the “Cold Discomfort” value in series [4] was “+”.

For `CCCCCP(=O)(C(C)CC)C(C)CC` (stereo not drawn) [DAPA-2-5, 1-Di(sec-butyl)-phosphinoyl-pentane], in series [1], the “Relative Potency to L-menthol” value worked out at 2.2, the “rank in TRPM8 potency among the 21 compounds tested” value came to 12 and the “TRPM8 Relative Potency” value is given as 0.41. For the same compound, in series [2], the “Duration” value is given as 12 min, the “Onset” value is reported as 0.1 min and the “Sensory Quality” value is “dynamic cool”. Besides, the Chili test result in series [3] is given as “++”. In addition, the “Cold Discomfort” value in series [4] is 0.

As to `CCCCCCP(=O)(C(C)CC)C(C)CC` (stereo not drawn) [DAPA-2-6, 1-Di(sec-butyl) phosphinoyl-hexane], in series [1], the “Relative Potency to L-menthol” value is on record as 4.7 and the “TRPM8 Relative Potency” value was 0.87. In series [2], the “Duration” value is 18 min, the “Onset” value is listed as 0.7 min and the “Sensory Quality” value is on record as “cool/cold”. In addition, the Chili test entry in series [3] is “++”. Further, the “Cold Discomfort” value in series [4] is listed as “++”.

On to `CCCCCCCP(=O)(C(C)CC)C(C)CC` (stereo not drawn) [DAPA-2-7, 1-Di(sec-butyl) phosphinoyl-heptane], for which, in series [1], the “Relative Potency to L-menthol” value was 3.4 and the “TRPM8 Relative Potency” value was 0.64. Besides, in series [2], the “Duration” value was determined as 21 min, the “Onset” value came out at 0.7 min and the “Sensory Quality” value is given as “cool/cold”. For the same compound, the Chili test entry in series [3] is recorded as “++”. The “Cold Discomfort” value in series [4] was “++”.

On to `CCCCCCCCP(=O)(C(C)CC)C(C)CC` (stereo not drawn) [DAPA-2-8, 1-Di(sec-butyl) phosphinoyl-octane], for which, in series [1], the “Relative Potency to L-menthol” value worked out at 2.9 and the “TRPM8 Relative Potency” value turned out to be 0.71. In addition, in series [2], the “Duration” value is 27 min, the “Onset” value was 1.2 min and the “Sensory Quality” value is listed as “cool”. The Chili test result in series [3] is reported as “+”. Further, the “Cold Discomfort” value in series [4] is reported as “+”.
